The text below walks through data of ChEMBL document CHEMBL4425183, “Gold catalyzed double condensation reaction: Synthesis, antimicrobial and cytotoxicity of spirooxindole derivatives” (Bioorg Med Chem Lett, 2016).

In one assay the test system is COLO 320. Description: cells. Particulars: Homo sapiens, COLO 320, read-out: GI.
Assay [1] concerns Staphylococcus epidermidis. Description: Antibacterial activity against Staphylococcus epidermidis MTCC 3615 at 1 mg/disc after 24 hrs at 37 degC by disc diffusion method. The assay is classed as functional. (In general: A growth-free zone around the sample is the usual read-out of agar diffusion tests.)
Assay [2] has as its system Bacillus subtilis. Description: Antibacterial activity against Bacillus subtilis MTCC 441 after 24 hrs at 37 degC by two fold serial dilution method. As to conditions: MTCC 441, 24 h. The assay is classed as functional.
Assay [3] relates to Klebsiella pneumoniae. Description: Antibacterial activity against Klebsiella pneumoniae MTCC 109 at 1 mg/disc after 24 hrs at 37 degC by disc diffusion method. The class given is functional.
Assay [4] has as its system Staphylococcus aureus. Description: Antibacterial activity against Staphylococcus aureus MTCC 96 after 24 hrs at 37 degC by two fold serial dilution method. The class given is functional. As to conditions: MTCC 96, 24 h.
Assay [5] relates to Klebsiella aerogenes. Description: Antibacterial activity against Enterobacter aerogenes MTCC 111 after 24 hrs at 37 degC by two fold serial dilution method. The assay is classed as functional. As to conditions: MTCC 111, 24 h.
Assay [6] concerns Micrococcus luteus. Description: Antibacterial activity against Micrococcus luteus MTCC 106 after 24 hrs at 37 degC by two fold serial dilution method. As to conditions: MTCC 106, 24 h. The class given is functional.
Assay [7] relates to Staphylococcus aureus. Description: Antibacterial activity against methicillin-resistant Staphylococcus aureus after 24 hrs at 37 degC by two fold serial dilution method. The class given is functional.
Assay [8] deals with Micrococcus luteus. Description: Antibacterial activity against Micrococcus luteus MTCC 106 at 1 mg/disc after 24 hrs at 37 degC by disc diffusion method. The assay is classed as functional.
Assay [9] relates to Bacillus subtilis. Description: Antibacterial activity against Bacillus subtilis MTCC 441 at 1 mg/disc after 24 hrs at 37 degC by disc diffusion method. The class given is functional.
Assay [10] relates to Staphylococcus aureus. Description: Antibacterial activity against methicillin-resistant Staphylococcus aureus at 1 mg/disc after 24 hrs at 37 degC by disc diffusion method. The assay is classed as functional.
For assay [11], the system named is Shigella flexneri. Description: Antibacterial activity against Shigella flexneri MTCC 1457 at 1 mg/disc after 24 hrs at 37 degC by disc diffusion method. The assay is classed as functional.
Assay [12] concerns Klebsiella aerogenes. Description: Antibacterial activity against Enterobacter aerogenes MTCC 111 at 1 mg/disc after 24 hrs at 37 degC by disc diffusion method. The class given is functional.
Assay [13] concerns Shigella flexneri. Description: Antibacterial activity against Shigella flexneri MTCC 1457 after 24 hrs at 37 degC by two fold serial dilution method. The assay is classed as functional. As to conditions: MTCC 1457, 24 h.
Assay [14] deals with Staphylococcus aureus. Description: Antibacterial activity against Staphylococcus aureus MTCC 96 at 1 mg/disc after 24 hrs at 37 degC by disc diffusion method. The assay is classed as functional.
The subject of assay [15] is Staphylococcus epidermidis. Description: Antibacterial activity against Staphylococcus epidermidis MTCC 3615 after 24 hrs at 37 degC by two fold serial dilution method. The class given is functional. As to conditions: MTCC 3615, 24 h.
Assay [16] relates to Salmonella typhimurium. Description: Antibacterial activity against Salmonella typhimurium MTCC 1251 at 1 mg/disc after 24 hrs at 37 degC by disc diffusion method. The class given is functional, Salmonella enterica subsp. enterica serovar Typhimurium.
In assay [17] the test system is Salmonella typhimurium. Description: Antibacterial activity against Salmonella typhimurium MTCC 1251 after 24 hrs at 37 degC by two fold serial dilution method. The assay is classed as functional, Salmonella enterica subsp. enterica serovar Typhimurium. As to conditions: Salmonella enterica, MTCC 1251, 24 h.
Assay [18] relates to Klebsiella pneumoniae. Description: Antibacterial activity against Klebsiella pneumoniae MTCC 109 after 24 hrs at 37 degC by two fold serial dilution method. The class given is functional. Particulars: MTCC 109, 24 h.
The subject of assay [19] is Candida albicans. Description: Antifungal activity against Candida albicans MTCC 227 at 1 mg/disc after 48 hrs at 28 degC by disc diffusion method. The assay is classed as functional.
A further assay deals with Malassezia pachydermatis. Description: Antifungal activity against Malassezia pachydermatis at 1 mg/disc after 48 hrs at 28 degC by disc diffusion method. The class given is functional.
In assay [20] the test system is Candida albicans. Description: Antifungal activity against Candida albicans MTCC 227 after 48 to 72 hrs at 28 degC by two fold serial dilution method. The class given is functional.

In brackets after ≈: the same amount, converted by molar mass.

Description for COLO 320: Cytotoxicity against human COLO320 cells assessed as cell growth inhibition at 156 uM by MTT assay relative to control

Regarding `O=P1(N(CCCl)CCCl)NCCCO1` (configuration not stated) [CYCLOPHOSPHAMIDE ANHYDROUS], the inhibition of growth at 156 µM with COLO 320 is 90%.

For `CN[C@@H]1[C@H](O[C@H]2[C@H](O[C@H]3[C@H](O)[C@@H](O)[C@H](N=C(N)N)[C@@H](O)[C@@H]3N=C(N)N)O[C@@H](C)[C@]2(O)C=O)O[C@@H](CO)[C@H](O)[C@H]1O` [STREPTOMYCIN], the “inhibition zone (IZ)” value is 25 mm in assay [1]; 20 mm with Klebsiella pneumoniae [3]; 26 mm in the assay with Micrococcus luteus [8]; 25 mm in the assay on Bacillus subtilis [9]; 30 mm in the assay with Staphylococcus aureus [10]; 30 mm with Shigella flexneri [11]. The “inhibition zone (IZ)” value stood at 22 mm in the assay with Klebsiella aerogenes [12], 14 mm in the assay on Staphylococcus aureus [14] and 18 mm in the assay on Salmonella typhimurium [16]. Also, the MIC against Bacillus subtilis [2] was 25 µM (≈ 14.5 µg/mL); in the assay with Staphylococcus aureus [4] it was 6.25 µM (≈ 3.63 µg/mL); with Klebsiella aerogenes [5], 25 µM (≈ 14.5 µg/mL); against Micrococcus luteus [6] it was 6.25 µM (≈ 3.63 µg/mL); with Staphylococcus aureus [7], 6.25 µM (≈ 3.63 µg/mL); with Shigella flexneri [13], 6.25 µM (≈ 3.63 µg/mL). The MIC in [15] amounted to 25 µM (≈ 14.5 µg/mL); against Salmonella typhimurium [17], 30 µM (≈ 17.4 µg/mL); in the assay on Klebsiella pneumoniae [18], 6.25 µM (≈ 3.63 µg/mL).

On to `CC(=O)N1CCN(c2ccc(OCC3COC(Cn4ccnc4)(c4ccc(Cl)cc4Cl)O3)cc2)CC1` (configuration not stated) [KETOCONAZOLE], for which the “inhibition zone (IZ)” value amounted to 28 mm in the assay on Candida albicans [19] and 26 mm with Malassezia pachydermatis. Besides, in the assay on Candida albicans [20], it took 25 µM (≈ 13.3 µg/mL) to inhibit growth (MIC).

For orientation: MIC means the least concentration at which growth counts as inhibited. A low value points to inhibition by little substance.
